# Source: patent publication US6887878B2, “KMST isoeugenol derivatives and pharmaceutical activity” (Ing-Jun Chen, priority 2003, dated 2005)
# “Also recorded” adds a separate entry of the source. Like-named read-outs stand apart in the source and are kept apart here.
# Assays:
# [1] = test system: α1-adrenergic receptor; experiment: noradrenaline-induced contraction in isolated rat thoracic aorta (pA2); design: species or system Wistar rat; conditions: Schild plot, mean ± SEM of eight, listed as KMST
# Procedure: (§1) Clonidine, noradrenaline and serotonin (10^−8˜10^−4 M) were added to the bath to induce contractions after pretreatment with KMST for 15 min.
# [2] = molecular target: T1, 5-HT1B (Rattus norvegicus, UniProt P28564); experiment: [3H]GR125743 receptor binding in rat cortex; design: species or system Wistar rat; conditions: [3H]GR125743 (5-HT1B/1D), rat cortex; read-out: Ki 5-HT1B
# T1 construct: from tissue; host or cells: Wistar rat cortex membranes
# Procedure: (§2) The homogenate was pressure filtered through muslin. Filtrate was centrifuged at 1000 g for 10 min. […] Protein content was determined by Bradford's method.
# [3] = molecular target: α1 receptors; experiment: [3H]prazosin receptor binding in rat cortex; design: species or system Wistar rat
# Procedure: as §2
# [4] = molecular target: α2 receptors; experiment: [3H]yohimbine receptor binding in rat cortex; design: species or system Wistar rat
# Procedure: as §2
# [5] = molecular target: T2, β1 receptors (Rattus norvegicus, UniProt P18090); experiment: [3H]CGP-12177 receptor binding in rat ventricle; design: species or system Wistar rat; conditions: [3H]CGP-12177, rat ventricle
# T2 construct: from tissue; host or cells: Wistar rat heart (ventricle) membranes
# Procedure: as §2
# [6] = molecular target: M2; experiment: M2 receptor binding; design: species or system guinea pig
# [7] = test system: phenylephrine-induced contractions in rat thoracic aorta; experiment: LPS-induced vascular hyporeactivity: phenylephrine-induced contractions in rat thoracic aorta; type: in vivo, Wistar rat; conditions: for pD2 at 3rd hr / pD2 at 5th hr: pD2 to phenylephrine
# [8] = test system: serotonin-induced human platelet aggregation; experiment: serotonin-induced human platelet aggregation; type: cell-based; conditions: serotonin 5 μM, PRP; read-out: IC50 serotonin-induced human platelet aggregation
# Procedure: Venous blood from human volunteer donors was collected in 10 ml Monovette containing 1 ml citrate solution (0.106M trisodium citrate; Sarstedt, Nümbrecht, Germany) and centrifuged (400 g, 10 min, 20° C.). […] After centrifugation (10 min, 2000 g, 20° C.), the platelet pellet was resuspended in wishing buffer (113 mM NaCl, 4 mM Na2HPO4, 24 mM NaH2PO4, 4 mM KCl, 0.2 mM EGTA(Ethylene glycol-bis-(2-aminoethyl ether) N,N,N′-tetraacetic acid), 0.1% (wt/vol) glucose, pH 6.0) and recentrifuged (10 min, 2000 g, 20° C.). The washed platelets were resuspended in incubation buffer (134 mM NaCl, 12 mM NaHCO3, 2.9 mM KCl, 0.34 mM NaH2PO4, 5 mM HEPES (N-(2-hydroxyethyl) piperazine-N′-(2-ethanesulfonic acid)), 5 mM glucose, pH7.4), cells were counted in a Sysmex hematology analyzer (Sysmex, CDA-500, Japan) and adjusted to a final concentration of 2×10^8 platelets/ml.
# The aggregation of the platelets in platelet-rich plasma (PRP) was measured as a change in light absorbance by a Payton dual-channel aggregometer (NBS, Hema tracer, Japan). PRP (240 μL) was stirred (700 rpm) at 37° C. for 1 min, and 5 μL epinephrine (final concentration 5 μM), serotonin (final concentration 5 μM) was added. After which the rate of primary aggregation (1/min) and maximum aggregation (%) at 5 min were recorded. To study the effects of compounds on epinephrine or serotonin-induced aggregation, PRP was incubated with 5 μL of compounds at various concentrations for 1 min before epinephrine or serotonin was added. IC50 values given were calculated from the secondary aggregation data.
# [9] = test system: pentobarbital-anesthetized rats; experiment: intravenous injection in pentobarbital-anesthetized rats, BP and HR; type: in vivo, Wistar rat; conditions: intravenous administration
# Procedure: (§3) In brief, Wistar rats weighing 250-300 g were anesthetized with pentobarbital sodium (50 mg kg^−1, i.p.). Following tracheal cannulation, systemic arterial BP and HR were recorded from the femoral artery by a pressure transducer (model P10EZ; Spectramed, Oxnard, Calif., U.S.A.) connected to a recorder (GOULD, Valley View, Ohio, Model P50). Body temperature was maintained at 37° C. by an electric heating pad. A femoral vein was cannulated for intravenous injection of drugs and LPS (10 mg kg^−1).
# [10] = test system: anesthetized rats; experiment: LPS-induced hypotension; type: in vivo, Wistar rat; conditions: pretreatment, intravenous LPS
# Procedure: as §3
# [11] = test system: IL-1β, IL-6, IFN-γ and TNF-α; experiment: LPS-induced plasma cytokine immunoreactivity; type: in vivo, rat; conditions: 1 mg kg−1, i.v., pretreatment
# Procedure: as §3
# (§4) Blood was collected from venous cannula, injected into ice-cold heparinized Eppendorf tubes and centrifuged at 1500 rpm for 10 min at 4° C. Plasma supernatant was stored at −70° C. until analyzed. Solid phase enzyme immunoassay that specifically detects murine IL-1β, IL-6, IFN-γ and TNF-α was used with a detection limit of >10 pg/ml (Endogen, U.S.A). Pre-treatment with KMST and other agents was performed 15 minutes before intravenous injection of LPS. Blood was collected from venous cannula. Blood glucose was measured with a glucose test strip (Glucotide, Bayer, U.S.A) at 1, 3 and 5 hours.
# [12] = LPS-induced blood glucose changes; type: in vivo, rat
# Procedure: as §3, §4
# [13] = test system: rats; experiment: LPS-induced mortality; conditions: rat, in vivo
# [14] = molecular target: T3, 5-HT1A (Rattus norvegicus, UniProt P19327); experiment: [3H]WAY100635 receptor binding; conditions: read-out: Ki 5-HT1A; [3H]WAY100635
# T3 sequence (P19327 1-422): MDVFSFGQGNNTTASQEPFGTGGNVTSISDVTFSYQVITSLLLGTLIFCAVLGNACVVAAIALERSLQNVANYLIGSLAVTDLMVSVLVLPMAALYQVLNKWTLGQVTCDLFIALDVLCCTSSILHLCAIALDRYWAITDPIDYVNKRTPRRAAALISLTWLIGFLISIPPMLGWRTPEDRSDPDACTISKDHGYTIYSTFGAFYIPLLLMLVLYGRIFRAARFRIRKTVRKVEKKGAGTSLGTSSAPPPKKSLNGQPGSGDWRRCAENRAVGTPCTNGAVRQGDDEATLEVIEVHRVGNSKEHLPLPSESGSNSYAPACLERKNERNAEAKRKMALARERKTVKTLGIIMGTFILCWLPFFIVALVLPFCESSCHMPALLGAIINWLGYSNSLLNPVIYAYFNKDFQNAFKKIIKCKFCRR
# [15] = molecular target: 5-HT2A receptor (Rattus norvegicus, UniProt P14842); experiment: 5-HT-induced contraction in isolated rat thoracic aorta (pA2); design: Rat thoracic aorta was removed, cleaned of adhering fat and connective tissue; from tissue; host or cells: Wistar rat thoracic aorta rings; species or system Wistar rat; conditions: Schild plot, mean ± SEM of eight, listed as KMST
# Procedure: as §1
# [16] = agent given after LPS injection (1 hr)
# [17] = agent given before LPS injection (30 min)
# Chain of 5-HT2A receptor (P14842 whole entry): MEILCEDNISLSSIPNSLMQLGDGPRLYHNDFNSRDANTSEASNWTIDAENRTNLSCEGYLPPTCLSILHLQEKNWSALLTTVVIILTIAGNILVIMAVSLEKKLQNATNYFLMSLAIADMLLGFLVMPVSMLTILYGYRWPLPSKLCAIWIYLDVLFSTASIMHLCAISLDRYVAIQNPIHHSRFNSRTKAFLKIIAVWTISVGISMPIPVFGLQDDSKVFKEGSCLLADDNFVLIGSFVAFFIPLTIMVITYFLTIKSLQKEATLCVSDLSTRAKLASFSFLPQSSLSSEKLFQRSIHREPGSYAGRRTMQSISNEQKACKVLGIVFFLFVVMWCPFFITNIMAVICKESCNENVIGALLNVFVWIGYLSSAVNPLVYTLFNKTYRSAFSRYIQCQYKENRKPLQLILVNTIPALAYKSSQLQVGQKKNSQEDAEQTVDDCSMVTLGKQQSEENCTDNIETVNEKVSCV
# T1 sequence (P28564 whole entry): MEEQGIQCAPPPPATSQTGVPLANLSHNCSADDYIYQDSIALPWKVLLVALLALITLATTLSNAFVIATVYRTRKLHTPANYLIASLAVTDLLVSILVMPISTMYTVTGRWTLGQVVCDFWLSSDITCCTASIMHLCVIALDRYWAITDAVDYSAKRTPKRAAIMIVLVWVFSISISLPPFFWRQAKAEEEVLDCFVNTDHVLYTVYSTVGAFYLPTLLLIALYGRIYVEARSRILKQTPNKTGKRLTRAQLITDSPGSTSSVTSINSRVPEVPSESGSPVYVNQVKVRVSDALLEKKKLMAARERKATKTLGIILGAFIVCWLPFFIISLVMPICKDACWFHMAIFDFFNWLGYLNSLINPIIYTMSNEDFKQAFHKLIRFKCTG
# T2 sequence (P18090 whole entry): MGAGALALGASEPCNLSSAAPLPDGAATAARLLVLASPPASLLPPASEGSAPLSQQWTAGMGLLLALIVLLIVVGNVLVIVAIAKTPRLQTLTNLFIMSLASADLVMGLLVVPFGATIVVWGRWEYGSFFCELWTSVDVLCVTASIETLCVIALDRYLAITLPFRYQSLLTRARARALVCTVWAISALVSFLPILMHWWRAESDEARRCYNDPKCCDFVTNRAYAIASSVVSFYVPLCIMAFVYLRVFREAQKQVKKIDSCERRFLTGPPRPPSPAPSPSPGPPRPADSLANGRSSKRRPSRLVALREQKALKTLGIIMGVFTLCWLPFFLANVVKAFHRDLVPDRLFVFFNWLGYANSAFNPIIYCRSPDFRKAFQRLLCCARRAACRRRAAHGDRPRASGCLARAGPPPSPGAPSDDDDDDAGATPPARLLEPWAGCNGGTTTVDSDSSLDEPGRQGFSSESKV
smiles,measurement,setting,value
CC=Cc1ccc(OCC(O)CN2CCN(c3cccc(Cl)c3)CC2)c(OC)c1 (centres unmarked) [Compound 1],α1 pA2 value,[1],7.97±0.39
same,Ki,[2],670 nM
same,Ki,[3],142 nM
same,Ki,[4],1840 nM
same,Ki,[4]; listed as KMST,1390 nM
same,Ki,[5],72.8 nM
same,Ki,[6],> 10000 nM
same,aortic contractility of LPS-treated rats versus vehicle group,"[7]; 1 mg kg−1 i.v. before or after application of LPS, listed as KMST",improved the aortic contractility better than in vehicle group; also recorded: increased aortic contractility more than the vehicle group
same,pD2 at 3rd hr,[7]; [16],6.29 ± 0.08
same,pD2 at 5th hr,[7]; [16],5.57 ± 0.17
same,pD2 at 3rd hr,[7]; [17],7.16 ± 0.18
same,pD2 at 5th hr,[7]; [17],6.29 ± 0.11
same,IC50,[8],3.63 nM
same,mean BP and HR,[9],dose-dependent decrease
same,phenylephrine- and isoprenaline-induced changes in BP and HR,[9],inhibited
same,aortic hyporeactivity and second prolonged hypotensive reaction induced by LPS,[10],inhibited
same,"LPS-induced elevations of IL-1β, IL-6, IFN-γ and TNF-α levels",[11],inhibited
same,LPS-induced early hyperglycemia,[12]; at 1 and 3 hours,inhibited
same,LPS-induced hypoglycemia,[12]; at 5 hours,did not affect
same,LPS-induced death,[13],did not prevent
same,survival time after LPS,[13],did prolong survival time
same,Ki,[14],> 10000 nM
same,5-HT2A pA2 value,[15],8.68±0.12
